Among the test systems are A498; HCT-116; HCT-15; HL-60; HT-29; K562; Malme-3M; OVCAR-3; OVCAR-4; OVCAR-5; OVCAR-8; RXF 393; SK-MEL-28; SK-OV-3; SR; TK-10; UACC-257; Hs-578T; MDA-MB-231.
What all share (experiment): NCI-60 cell line screen, 48 h

Here are results for nine compounds from ChEMBL document CHEMBL1201862, “PubChem BioAssay data set” (2004).

Each structure is given as a SMILES string.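 A five-concentration, 48-hour dose response in 96-well plates underlies each endpoint, interpolated linearly between surrounding concentrations. GI50 is the concentration that inhibits growth by half.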 Calls of active or inactive are those of the source. Rule as the data show it: active = GI50 up to about 1.1 µM and inactive = higher. A value given as a limit tells only on which side of the number the result lay.

As to `NC(=O)COc1ccccc1`, the GI50 with A498 was > 100 µM (inactive); in the assay on HCT-116, > 100 µM (inactive); with HCT-15, > 100 µM; with HL-60 it was > 100 µM (inactive); with HT-29, > 100 µM (inactive); in the assay with K562 it was > 100 µM (inactive). Moreover, the GI50 with Malme-3M, in the assay on OVCAR-3, in the assay with OVCAR-4, in the assay on OVCAR-5, in the assay on OVCAR-8 and in the assay on RXF 393 was > 100 µM (inactive) throughout. The GI50 in the assay with SK-MEL-28, in the assay on SK-OV-3, in the assay on SR, in the assay with TK-10 and in the assay with UACC-257 was > 100 µM (inactive) throughout.
For the compound `CC(=O)Oc1ccc(CO)cc1OC(C)=O`, the GI50 is > 100 µM (inactive) with A498; > 100 µM (inactive) with HCT-116; > 100 µM in the assay with HCT-15; 24.5 µM (inactive) with HL-60; > 100 µM (inactive) with HT-29; 57.8 µM (inactive) in the assay on K562. In addition, the GI50 with Malme-3M, in the assay on OVCAR-3, in the assay with OVCAR-4, with OVCAR-5, in the assay with OVCAR-8 and in the assay on RXF 393 was > 100 µM (inactive) in each case. Also, the GI50 with SK-MEL-28, with SK-OV-3, in the assay on SR, with TK-10 and with UACC-257 was > 100 µM (inactive) each time.
Turning to `CC(N)Cc1ccc(F)cc1` (centres undefined), the GI50 with A498 is > 100 µM (inactive); in the assay on HCT-116, > 100 µM (inactive); in the assay on HCT-15 it was > 100 µM; in the assay with HL-60, > 100 µM (inactive); in the assay with HT-29 it was > 100 µM (inactive); with K562, > 100 µM (inactive). For the same compound, the GI50 in the assay with Malme-3M, in the assay with OVCAR-3, in the assay with OVCAR-4, in the assay with OVCAR-5, in the assay with OVCAR-8 and in the assay on RXF 393 was > 100 µM (inactive) throughout. Moreover, the GI50 in the assay with SK-MEL-28, in the assay on SK-OV-3, in the assay with SR, with TK-10 and in the assay with UACC-257 was > 100 µM (inactive) throughout.
In the case of `CC(=O)OCC(=O)OC[C@H](OCc1ccccc1)[C@@H]1[C@H](OC(C)=O)C(=O)N1Cc1ccccc1`, the GI50 was > 100 µM (inactive) in the assay on A498; > 100 µM (inactive) with HCT-116; > 100 µM in the assay on HCT-15; > 100 µM (inactive) in the assay with HT-29; > 100 µM (inactive) in the assay on Hs-578T; > 100 µM (inactive) with K562. Moreover, the GI50 with MDA-MB-231, with Malme-3M, in the assay on OVCAR-3, in the assay on OVCAR-4, in the assay on OVCAR-5 and with OVCAR-8 was > 100 µM (inactive) in each case. Besides, the GI50 in the assay on SK-MEL-28, with SK-OV-3, in the assay on SR, in the assay on TK-10 and with UACC-257 was > 100 µM (inactive) throughout.
`CCOC(=O)N1CCN(Cc2cc(=O)n3cc(C)ccc3n2)CC1`: the GI50 is > 100 µM (inactive) in the assay with HCT-116; > 100 µM in the assay with HCT-15; > 100 µM (inactive) in the assay on HL-60; > 100 µM (inactive) in the assay with HT-29; > 100 µM (inactive) in the assay on Hs-578T; > 100 µM (inactive) in the assay with K562. Further, the GI50 in the assay with MDA-MB-231, with Malme-3M, in the assay on OVCAR-3, in the assay with OVCAR-4, with OVCAR-5 and in the assay with OVCAR-8 was > 100 µM (inactive) throughout. The GI50 with SK-MEL-28, with SK-OV-3, in the assay on SR, in the assay with TK-10 and in the assay on UACC-257 was > 100 µM (inactive) throughout.
For `Cc1ccc(C2=Nc3ccccc3NC(=O)C2)cc1`, the GI50 in the assay with A498 was > 100 µM (inactive); in the assay on HCT-116, > 100 µM (inactive); in the assay on HCT-15, > 100 µM; in the assay on HL-60, 51.2 µM (inactive); in the assay with HT-29, > 100 µM (inactive); in the assay on K562, > 100 µM (inactive). The GI50 in the assay on Malme-3M is > 100 µM (inactive); in the assay with OVCAR-3, > 100 µM (inactive); in the assay with OVCAR-4 it was > 100 µM (inactive); in the assay with OVCAR-5, > 100 µM (inactive); in the assay with OVCAR-8 it was 79.8 µM (inactive); in the assay on RXF 393 it was > 100 µM (inactive). For the same compound, the GI50 in the assay on SK-MEL-28, in the assay with SK-OV-3, in the assay with SR, in the assay on TK-10 and in the assay with UACC-257 was > 100 µM (inactive) each time.
As to `N#CC1(Cc2ccccc2)CCCCN1C(=O)c1ccccc1` (centres undefined), the GI50 was > 100 µM (inactive) in the assay on A498; > 100 µM (inactive) in the assay on HCT-116; > 100 µM in the assay on HCT-15; 45.2 µM (inactive) in the assay on HL-60; > 100 µM (inactive) in the assay on HT-29; > 100 µM (inactive) with K562. Moreover, the GI50 with Malme-3M, in the assay with OVCAR-3, in the assay with OVCAR-4, in the assay on OVCAR-5, with OVCAR-8 and in the assay on RXF 393 was > 100 µM (inactive) throughout. For the same compound, the GI50 with SK-MEL-28 was > 100 µM (inactive); with SK-OV-3 it was > 100 µM (inactive); in the assay with SR, 44.7 µM (inactive); in the assay on TK-10, > 100 µM (inactive); with UACC-257, > 100 µM (inactive).
Turning to `COc1ccc(NC(=S)Nc2c(C)n(C)n(-c3ccccc3)c2=O)cc1`, the GI50 in the assay with A498 is > 100 µM (inactive); in the assay with HCT-116, > 100 µM (inactive); with HCT-15, > 100 µM; in the assay on HL-60 it was > 100 µM (inactive); with HT-29, > 100 µM (inactive); with Hs-578T it was > 100 µM (inactive). Further, the GI50 in the assay with K562, in the assay on MDA-MB-231, with Malme-3M, in the assay with OVCAR-3, in the assay on OVCAR-5 and in the assay with OVCAR-8 was > 100 µM (inactive) each time. The GI50 in the assay on RXF 393, with SK-MEL-28, in the assay on SK-OV-3, with TK-10 and in the assay on UACC-257 was > 100 µM (inactive) in each case.
On to `CC[C@@]1(O)C(=O)OCc2c1cc1n(c2=O)Cc2cc3cc(OC)ccc3nc2-1`, for which the GI50 with A498 was 0.415 µM (active); in the assay with HCT-116, 0.0197 µM (active); in the assay with HCT-15, 0.116 µM; in the assay with HL-60, 0.018 µM (active); in the assay with HT-29, 0.0268 µM (active); in the assay on K562 it was 0.123 µM (active). Moreover, the GI50 is 0.0843 µM (active) in the assay on MDA-MB-231; 0.255 µM (active) in the assay on Malme-3M; 0.435 µM (active) in the assay with OVCAR-3; 0.00845 µM (active) with OVCAR-4; 0.0452 µM (active) in the assay with OVCAR-5; 0.0448 µM (active) with OVCAR-8. The GI50 with RXF 393 was 0.016 µM (active); in the assay on SK-MEL-28 it was 0.372 µM (active); with SK-OV-3, 0.0498 µM (active); with SR, 0.00667 µM (active); in the assay on TK-10, 3.01 µM (inactive); in the assay on UACC-257 it was 0.15 µM (active).
